≈ marks a conversion by molar mass, not a printed value. Where two headings read alike, the source gives them in different places.
What was measured:
[1] = test system: Staphylococcus aureus ATCC 29213; experiment: In vitro antibacterial activity (CLSI dilution MIC); type: cell-based; conditions: ATCC29213
[2] = test system: Staphylococcus aureus ATCC BAA-1556 (MERSA resistant); experiment: as above; type: cell-based; conditions: ATCCBAA1556
[3] = test system: Enterococcus faecium ATCC 35667; experiment: as above; type: cell-based; conditions: ATCC35667
[4] = test system: Mycobacterium tuberculosis H37Rv strain; experiment: Anti-tubercular alamar blue microplate MIC assay; type: cell-based; conditions: 168 h, 7 days, read-out: anti-mycobacterial activity (MIC)
DNA gyrase from E. coli = target: T1, DNA gyrase from E. coli (Escherichia coli, UniProt P0AES4+P0AES6); experiment: Inspiralis E. coli DNA gyrase inhibition assay; type: biochemical
T1 construct: purchased Inspiralis
T1 sequence (P0AES4 whole entry, one chain of several): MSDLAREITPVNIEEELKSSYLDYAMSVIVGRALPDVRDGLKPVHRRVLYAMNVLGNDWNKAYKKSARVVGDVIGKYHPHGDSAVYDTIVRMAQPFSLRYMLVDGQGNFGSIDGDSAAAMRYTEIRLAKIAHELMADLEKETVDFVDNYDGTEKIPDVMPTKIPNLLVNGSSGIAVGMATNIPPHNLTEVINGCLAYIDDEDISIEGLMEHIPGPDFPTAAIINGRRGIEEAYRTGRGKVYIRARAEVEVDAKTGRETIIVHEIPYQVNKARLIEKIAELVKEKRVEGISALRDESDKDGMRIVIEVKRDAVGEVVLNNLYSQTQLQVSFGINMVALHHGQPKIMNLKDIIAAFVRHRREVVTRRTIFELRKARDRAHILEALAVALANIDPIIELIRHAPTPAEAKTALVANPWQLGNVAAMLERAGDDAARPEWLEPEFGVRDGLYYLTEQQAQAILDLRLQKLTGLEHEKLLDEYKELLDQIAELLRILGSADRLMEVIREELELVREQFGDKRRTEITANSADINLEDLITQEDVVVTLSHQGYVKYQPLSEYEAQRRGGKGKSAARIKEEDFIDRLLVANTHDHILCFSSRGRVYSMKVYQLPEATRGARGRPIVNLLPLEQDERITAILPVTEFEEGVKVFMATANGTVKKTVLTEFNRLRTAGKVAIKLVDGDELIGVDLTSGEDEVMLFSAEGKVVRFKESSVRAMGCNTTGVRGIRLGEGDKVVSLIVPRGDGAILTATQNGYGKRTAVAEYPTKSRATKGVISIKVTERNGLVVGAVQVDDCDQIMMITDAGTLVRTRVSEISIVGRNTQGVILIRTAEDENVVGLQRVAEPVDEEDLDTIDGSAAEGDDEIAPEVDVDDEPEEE
Description: Inhibitory potencies were investigated utilizing the Inspiralis assay on streptavidin-coated 96-well microtiter plates. First, the plates were rehydrated with buffer (20 mM Tris-HCl with pH 7.6, 0.01% w/v BSA, 0.05% v/v Tween 20, 137 mM NaCl) and the biotinylated oligonucleotide was then immobilized. After washing off the unbound oligonucleotide, the enzyme test was performed. The reaction volume of 30 μL in buffer (35 mM Tris×HCl with pH 7.5, 4 mM MgCl2, 24 mM KCl, 2 mM DTT, 1.8 mM spermidine, 1 mM ATP, 6.5% w/v glycerol, 0.1 mg/mL albumin) contained 1.5 U of DNA gyrase from E. coli, 0.75 μg of relaxed pNO1 plasmid, and 3 μL solution of the inhibitor in 10% DMSO and 0.008% Tween 20. Reaction solutions were incubated at 37° C. for 30 min. After that, the TF buffer (50 mM NaOAc with pH 5.0, 50 mM NaCl and 50 mM MgCl2) was added to terminate the enzymatic reaction. After additional incubation for 30 min at rt, during which biotinoligonucleotide-plasmid triplex was formed, the unbound plasmid was washed off using TF buffer and SybrGOLD in T10 buffer (10 mM Tris HCl with pH 8.0 and 1 mM EDTA) was added. The fluorescence was measured with a microplate reader (BioTek Synergy H4, excitation: 485 nm, emission: 535 nm). Initial screening was done at 100 or 10 μM concentration of inhibitors. […] GraphPad Prism software was used to calculate the IC50 values. […]

[5] = test system: Staphylococcus epidermidis; experiment: In vitro antibacterial activity (CLSI dilution MIC); type: cell-based
[6] = test system: Pseudomonas aeruginosa MTCC 741; experiment: as above; type: cell-based; conditions: MTCC741
[7] = test system: Bacillus subtilis MTCC 441; experiment: as above; type: cell-based; conditions: MTCC441
[8] = test system: Escherichia coli MTCC 443; experiment: as above; type: cell-based; conditions: MTCC443
[9] = test system: Klebsiella pneumonia MTCC 618; experiment: as above; type: cell-based; conditions: Klebsiella pneumoniae, MTCC618
[10] = test system: Enterococcus faecium ATCC 51559 (VRE resistant); experiment: as above; type: cell-based

Question: Which results are given for `CC(=O)Nc1ccc2oc3c4ccc(CC(=O)O)cc4oc(=O)c3c2c1` [Compound 5, 2-(8-acetamido-6-oxo-6H-benzofuro[3,2-c]chromen-3-yl)acetic acid]?
Answer: MIC [1]: 1 µg/mL (≈ 2.85 µM); MIC [2]: 1 µg/mL (≈ 2.85 µM); MIC [3]: 0.55 µg/mL (≈ 1.57 µM); MIC [4]: 1 µg/mL (≈ 2.85 µM); IC50 (DNA gyrase from E. coli): 20 nM; MIC [5]: 2 µg/mL (≈ 5.69 µM); MIC ([6]; Pseudomonas aeruginosa MTCC 741, read-out: MIC): 0.25 µg/mL (≈ 0.712 µM); MIC ([7]; Bacillus subtilis MTCC 441, read-out: MIC): 0.55 µg/mL (≈ 1.57 µM); MIC [8]: 0.75 µg/mL (≈ 2.13 µM); MIC ([9]; Klebsiella pneumonia MTCC 618, read-out: MIC): 0.75 µg/mL (≈ 2.13 µM); MIC [10]: 0.5 µg/mL (≈ 1.42 µM)

Question: Which results are given for `CN[C@H](CC(C)C)C(=O)N[C@H]1C(=O)N[C@@H](CC(N)=O)C(=O)N[C@H]2C(=O)N[C@H]3C(=O)N[C@H](C(=O)N[C@H](C(=O)O)c4cc(O)cc(O)c4-c4cc3ccc4O)[C@H](O)c3ccc(c(Cl)c3)Oc3cc2cc(c3O[C@@H]2O[C@H](CO)[C@@H](O)[C@H](O)[C@H]2O[C@H]2C[C@](C)(N)[C@H](O)[C@H](C)O2)Oc2ccc(cc2Cl)[C@H]1O` [Vancomycin, reference compound]?
Answer: MIC ([6]; Pseudomonas aeruginosa): > 128 µg/mL; MIC ([7]; Bacillus subtilis): 0.5 µg/mL (≈ 0.345 µM); MIC [9]: > 128 µg/mL

Reference: patent US11976080B1, “Benzofuro[3,2-c]chromen-6-one compounds as antibacterial agents” (King Faisal University, priority 2023, dated 2024)
